Assay results reported in patent US10689331B2, “IDO inhibitors” (Bristol-Myers Squibb Company, priority 2015, dated 2020).

Target: T1, human IDO1 (Homo sapiens, UniProt P14902)
T1 construct: expressed in transfected cells
Assay: HEK Human IDO-1 inhibition assay (kynurenine readout, Ehrlich reagent, absorbance 490 nm)
Format: cell-based
Settings: human IDO1/HEK293 cells, incubated 20 hours with compound; 500 nM reference standard = 100% inhibition
How it was run: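 HEK293 cells stably expressing human IDO1, treated with compound for 20 h at 37 °C in phenol red-free RPMI/10% FBS. Kynurenine detected after TCA (0.2% final, 50 °C, 30 min) by Ehrlich reagent absorbance at 490 nm; IC50 normalised to 500 nM reference standard (100%) and DMSO (0%).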

T1 sequence (P14902 whole entry): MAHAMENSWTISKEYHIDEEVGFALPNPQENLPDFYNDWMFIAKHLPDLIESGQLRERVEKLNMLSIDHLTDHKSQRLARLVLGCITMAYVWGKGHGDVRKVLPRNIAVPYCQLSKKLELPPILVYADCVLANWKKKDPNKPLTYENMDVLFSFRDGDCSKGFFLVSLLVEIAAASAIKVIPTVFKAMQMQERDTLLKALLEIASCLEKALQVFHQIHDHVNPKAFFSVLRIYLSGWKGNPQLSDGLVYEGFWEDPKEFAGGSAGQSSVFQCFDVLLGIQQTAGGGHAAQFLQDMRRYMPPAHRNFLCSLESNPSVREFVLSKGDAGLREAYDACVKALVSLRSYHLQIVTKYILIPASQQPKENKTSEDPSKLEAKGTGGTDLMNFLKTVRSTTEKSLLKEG

| SMILES | IC50 |
| --- | --- |
| CC(C)CN(c1ccc(OCC(=O)O)cc1NC(=O)Nc1ccc(Cl)cc1F)C1CCC(O)CC1 (stereo not shown) [Example 150, 2-(3-(3-(4-chloro-2-fluorophenyl)ureido)-4-((( )-4 hydroxycyclohexyl)(isobutyl)amino)phenoxy)acetic acid] | ≥ 0.1 µM |
| C=C(C)CN(CCCC(F)(F)F)c1cc(F)c(OCC(=O)O)cc1NC(=O)Nc1ccc(C)cc1 [Example 120] | < 0.1 µM |
| COC1CCC(N(CC(C)C)c2ccc(OCC(=O)O)cc2NC(=O)Nc2ccc(Cl)cc2F)CC1 (stereo not shown) [Example 152, 2-(3-(3-(4-chloro-2-fluorophenyl)ureido)-4-(isobutyl(0-4-methoxycyclohexyl)amino)phenoxy)acetic acid] | ≥ 0.1 µM |
| CC(C)CN(c1ccc(OCC(=O)O)cc1NC(=O)Nc1cccc(C(F)(F)F)c1F)C1CCCCC1 [Example 27, 2-(4-(cylclohexyl(isobutyl)amino)-3-(3-(2-fluoro-3-(trifluoromethyl)phenyl)ureido)phenoxy)acetic acid] | ≥ 0.1 µM |
| CC(C)CN(c1ccc(OC(C)C(=O)O)cc1NC(=O)Nc1ccc(C#N)cc1)C1CCCCC1 (racemic) [racemic 66] | ≥ 0.1 µM |
| CCCN(Cc1ccccc1)c1ccc(OCC(=O)O)cc1NC(=O)Nc1ccc(Cl)cc1F [Example 158, 2-(4-(benzyl(propyl)amino)-3-(3-(4-chloro-2-fluorophenyl)ureido)phenoxy)acetic acid] | < 0.1 µM |
| CC(C)CN(c1ccc(OC(C)C(=O)O)cc1NC(=O)Nc1ccc(Cl)cc1F)C1CCOC1 (stereo not shown) [Example 145, 2-(3-(3-(4-chloro-2-fluorophenyl)ureido)-4-(isobutyl(tetrahydrofuran-3-yl)amino)phenoxy)propanoic acid] | < 0.1 µM |
| CC(C)CN(c1ccc(OC(C(=O)O)C(C)C)cc1NC(=O)Nc1ccc(Cl)cc1F)C1CCCCC1 (racemic) [Example 83] | < 0.005 µM |
| CC(C)CN(c1ccc(OCC(=O)O)cc1NC(=O)Nc1cncnc1)C1CCCCC1 [Example 2, 2-(4-(cyclohexyl(isobutyl)amino)-3-(3-(pyrimidin-5-yl)ureido)phenoxy)acetic acid] | ≥ 0.1 µM |
| CC(C)CN(c1ccc(OCC(=O)O)cc1NC(=O)Nc1cc(F)cc(F)c1)C1CCCCC1 [Example 32, 2-(4-(cyclohexyl(isobutyl)amino)-3-(3-(3,5-difluorophenyl)ureido)phenoxy)acetic acid] | ≥ 0.1 µM |
| CC(C)CN(c1c(C#N)cc(OCC(=O)O)cc1NC(=O)Nc1ccc(Cl)cc1F)C1CCCCC1 [Example 108, 2-(3-(3-(4-chloro-2-fluorophenyl)ureido)-5-cyano-4-(cyclohexyl(isobutyl)amino)phenoxy)acetic acid] | < 0.1 µM |

Second part, the compound after the results:

| IC50 | SMILES |
| --- | --- |
| < 0.005 µM | CC(C)CN(c1ccc(OC(C)C(=O)O)cc1NC(=O)Nc1ccc(C#N)cc1)C1CCCCC1 (single isomer, unassigned) [Example 66-2, 2-(3-(3-(4-cyanophenyl)ureido)-4-(cyclohexyl(isobutyl)amino)phenoxy)propanoic acid] |
| < 0.005 µM | CC(C)CN(c1ccc(OC(C)C(=O)O)cc1NC(=O)Nc1ccc(Cl)cc1F)C1CCCCC1 (single isomer, unassigned) [Example 61-2, 2-(3-(3-(4-chloro-2-fluorophenyl)ureido)-4-(cyclo-hexyl(isobutyl)amino)phenoxy)propanoic acid] |
| < 0.1 µM | CCC(Oc1ccc(N(CC(C)C)C2CCOCC2)c(NC(=O)Nc2ccc(Cl)cc2F)c1)C(=O)O (single isomer, unassigned) [Example 143-1, 2-(3-(3-(4-chloro-2-fluorophenyl)ureido)-4-(isobutyl(tetrahydro-2H-pyran-4-yl)amino)phenoxy)butanoic acid] |
| < 0.1 µM | CC(C)CN(c1ccc(OC(C)C(=O)O)cc1NC(=O)Nc1cncnc1)C1CCCCC1 (single isomer, unassigned) [Example 58-2, 2-(4-(cyclohexyl(isobutyl)amino)-3-(3-(pyrimidin-5-yl)ureido)phenoxy)propanoic acid] |
| < 0.005 µM | CCCC(Oc1ccc(N(CC(C)C)C2CCCCC2)c(NC(=O)Nc2ccccc2F)c1)C(=O)O (single isomer, unassigned) [Example 87-2, 2-(4-(cyclohexyl(isobutyl)amino)-3-(3-(2-fluorophenyl)ureido)phenoxy)pentanoic acid] |
